Results reported in the Kinase Knowledgebase extract (Sharma et al. 2016).

Molecular target: PIK3CA (human) (UniProt P42336)
Experiment: Inhibition of PIK3CA Kinase Activity

PIK3CA (human), sequence (P42336 whole entry, looked up): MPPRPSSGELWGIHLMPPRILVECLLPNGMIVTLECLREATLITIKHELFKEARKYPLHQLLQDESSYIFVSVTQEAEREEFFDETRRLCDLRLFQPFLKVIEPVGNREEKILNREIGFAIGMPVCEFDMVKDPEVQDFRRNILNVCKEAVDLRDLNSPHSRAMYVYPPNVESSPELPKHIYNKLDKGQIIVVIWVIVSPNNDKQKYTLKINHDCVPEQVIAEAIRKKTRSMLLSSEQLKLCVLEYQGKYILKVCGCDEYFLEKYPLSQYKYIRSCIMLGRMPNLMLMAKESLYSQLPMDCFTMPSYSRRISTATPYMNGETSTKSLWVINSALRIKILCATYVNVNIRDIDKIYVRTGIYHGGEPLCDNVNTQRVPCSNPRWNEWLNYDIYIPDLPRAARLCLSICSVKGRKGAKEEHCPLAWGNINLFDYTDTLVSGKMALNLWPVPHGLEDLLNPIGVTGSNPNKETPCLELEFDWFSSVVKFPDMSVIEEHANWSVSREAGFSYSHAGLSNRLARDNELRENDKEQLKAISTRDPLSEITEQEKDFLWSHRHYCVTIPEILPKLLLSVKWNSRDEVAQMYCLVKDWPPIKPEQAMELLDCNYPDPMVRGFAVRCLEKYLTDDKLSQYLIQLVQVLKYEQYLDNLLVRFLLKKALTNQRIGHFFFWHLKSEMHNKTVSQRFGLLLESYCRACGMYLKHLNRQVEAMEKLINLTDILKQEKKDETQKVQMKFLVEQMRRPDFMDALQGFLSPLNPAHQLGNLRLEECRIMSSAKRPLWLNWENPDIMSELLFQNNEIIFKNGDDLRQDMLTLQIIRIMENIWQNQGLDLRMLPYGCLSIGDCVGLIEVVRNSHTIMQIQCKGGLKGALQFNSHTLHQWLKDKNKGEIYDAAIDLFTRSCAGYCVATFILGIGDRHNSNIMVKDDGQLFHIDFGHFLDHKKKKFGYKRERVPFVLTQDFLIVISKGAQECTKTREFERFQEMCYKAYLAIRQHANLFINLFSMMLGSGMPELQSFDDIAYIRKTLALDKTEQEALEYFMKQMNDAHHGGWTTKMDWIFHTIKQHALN

| Compound | IC50 [nM] |
| --- | --- |
| CCNCc1nc2c(c(N3CCOc4ccc(-c5cnc6nc(C)[nH]c6c5)cc4C3)n1)CC(C)(C)CC2 | ≤ 10 |
| Cc1nc2ncc(-c3ccc4c(c3)CN(c3nc(CN)nc5c3CC(C)(C)CC5)CCO4)cc2[nH]1 | ≤ 10 |
| CSc1nc2ccc(-c3ccc4c(c3)CN(c3ccnc5ccccc35)CCO4)cc2[nH]1 | 10 to 50 |
| Cc1nc(N)nc(N2CCOc3ccc(-c4cnc5[nH]cnc5c4)cc3C2)c1Cc1ccc(F)cc1 | ≤ 10 |
| Cc1nc2ccc(-c3ccc4c(c3)CN(c3ncnc5cc(F)c(F)cc35)CCO4)cc2[nH]1 | 50 to 250 |
| CCC1CCc2nc(C)nc(N3CCOc4ccc(-c5cnc6nc(C)[nH]c6c5)cc4C3)c2C1 (stereo not drawn) | 10 to 50 |
| Cc1nc2cc(-c3ccc4c(c3)CN(c3nc(C5CCCN5)nc5c3CC(C)(C)CC5)CCO4)cnc2[nH]1 (stereo not drawn) | 10 to 50 |
| COc1cc2nccc(N3CCOc4ccc(-c5ccc(-c6ncc[nH]6)cc5)cc4C3)c2cc1OC | 50 to 250 |
| c1cc(N2CCOc3ccc(-c4cnc5nc[nH]c5c4)cc3C2)ncn1 | 250 to 1000 |
| CC1(C)CCc2ncnc(N3CCOc4ccc(-c5cnc(N)c(S(=O)(=O)N6CCCC(O)C6)c5)cc4C3)c2C1 (stereo not drawn) | 10 to 50 |
| Cc1nc2ccc(-c3ccc4c(c3)CN(c3ncnc5ccc(Br)cc35)CCO4)cc2[nH]1 | 50 to 250 |
| CN(C)Cc1nc2c(c(N3CCOc4ccc(-c5ccc(Cl)c(C(N)=O)c5)cc4C3)n1)CC(C)(C)CC2 | 250 to 1000 |
| Cc1nc2ccc(-c3ccc4c(c3)CN(c3ncnc(C)c3CC3CC3)CCO4)cc2[nH]1 | 50 to 250 |
| CCNc1nc2ccc(-c3ccc4c(c3)CN(c3cc(C)nc5cc(F)ccc35)CCO4)cc2[nH]1 | ≤ 10 |
| CN(C)CCNS(=O)(=O)c1cc(-c2ccc3c(c2)CN(c2ncnc4c2CC(C)(C)CC4)CCO3)cnc1N | 50 to 250 |
| Cc1nc2c(c(N3CCOc4ccc(-c5cnc6nc(C)[nH]c6c5)cc4C3)n1)CC(C)CC2 (stereo not drawn) | 10 to 50 |
| COc1ccc2ncnc(N3CCOc4ccc(-c5ccc6nc(C)[nH]c6c5)cc4C3)c2c1 | 50 to 250 |
| Cc1nc2ccc(-c3ccc4c(c3)CN(c3ncnc(C)c3C(C)C)CCO4)cc2[nH]1 | 50 to 250 |
| CCN(Cc1nc2c(c(N3CCOc4ccc(-c5cnc6nc(C)[nH]c6c5)cc4C3)n1)CC(C)(C)CC2)C(C)C | 10 to 50 |
| CC1(C)CCc2ncnc(N3CCOc4ccc(-c5cnc(N)c(S(=O)(=O)NCC(O)CO)c5)cc4C3)c2C1 (stereo not drawn) | 10 to 50 |
| CCCOc1ccc2ncnc(N3CCOc4ccc(-c5ccc6nc(C)[nH]c6c5)cc4C3)c2c1 | 250 to 1000 |

| Compound | IC50 [nM] |
| --- | --- |
| CC[C@@H](C)NCc1nc2c(c(N3CCOc4ccc(-c5cnc6nc(C)[nH]c6c5)cc4C3)n1)CC(C)(C)CC2 | 10 to 50 |
| CCNS(=O)(=O)c1cc(-c2ccc3c(c2)CN(c2ncnc4c2CC(C)(C)CC4)CCO3)cnc1N | 10 to 50 |
| Cc1ncnc(N2CCOc3ccc(-c4cnc5sc(N)nc5c4)cc3C2)c1Cc1ccc(F)cc1 | ≤ 10 |
| CC1(C)CCc2ncnc(N3CCOc4ccc(-c5cnc(C(N)=O)c(N)c5)cc4C3)c2C1 | 250 to 1000 |
| COc1cc2c(N3CCOc4ccc(-c5ccc6nc(C)[nH]c6c5)cc4C3)ncnc2cc1Br | 250 to 1000 |
| Cc1nc2ccc(-c3ccc4c(c3)CN(c3ccnc(C)c3Cc3ccc(F)cc3)CCO4)cc2[nH]1 | 10 to 50 |
| CC[C@H]1CCCc2c(ncnc2N2CCOc3ccc(-c4cnc5nc(C)[nH]c5c4)cc3C2)C1 | 10 to 50 |
| Cc1nc2cc(-c3ccc4c(c3)CN(c3nc(CN5CCCC5)nc5c3CC(C)(C)CC5)CCO4)ccc2[nH]1 | ≤ 10 |
| CC1(C)CCc2ncnc(N3CCOc4ccc(-c5cnc(N)c(S(=O)(=O)N6CCC(O)CC6)c5)cc4C3)c2C1 | 50 to 250 |
| Cc1nc2ccc(-c3ccc4c(c3)CN(c3ncnc5sccc35)CCO4)cc2[nH]1 | 250 to 1000 |
| Cc1ncnc(N2CCOc3ccc(-c4ccc(C(=O)NCC(F)F)cc4)cc3C2)c1Cc1ccc(F)cc1 | 50 to 250 |
| Cc1nc2cc(-c3ccc4c(c3)CN(c3nc([C@@H]5CCCN5)nc5c3CC(C)(C)CC5)CCO4)cnc2[nH]1 | 10 to 50 |
| CC1=C(C)C(C)(C)Cc2c1ncnc2N1CCOc2ccc(-c3cnc4nc(C)[nH]c4c3)cc2C1 | 10 to 50 |
| CCCc1c(C)nc(CN(C)C)nc1N1CCOc2ccc(-c3cnc4sc(N)nc4c3)cc2C1 | ≤ 10 |
| CC1CCc2c(ncnc2N2CCOc3ccc(-c4cnc5nc(N)[nH]c5c4)cc3C2)C1 (stereo not drawn) | ≤ 10 |
| CN(C)C(=O)c1cc(-c2ccc3c(c2)CN(c2ncnc4c2CC(C)(C)CC4)CCO3)cnc1N | 250 to 1000 |
| CCNc1nc2ccc(-c3ccc4c(c3)CN(c3cc(C)nc5cc(OC)ccc35)CCO4)cc2[nH]1 | ≤ 10 |
| Cc1nc2ccc(-c3ccc4c(c3)CN(c3ncnc5ccc(F)cc35)CCO4)cc2[nH]1 | 50 to 250 |
| CN(C)S(=O)(=O)c1cc(-c2ccc3c(c2)CN(c2ncnc4c2CC(C)(C)CC4)CCO3)cnc1N | 10 to 50 |
| COc1c(OCCN(C)C)ccc2c(N3CCOc4ccc(-c5ccc6nc(C)[nH]c6c5)cc4C3)ncnc12 | 250 to 1000 |
| Cc1nc2ncc(-c3ccc4c(c3)CN(c3ncnc(Cl)c3C)CCO4)cc2[nH]1 | 50 to 250 |

| Compound | IC50 [nM] |
| --- | --- |
| Cc1nc2ncc(-c3ccc4c(c3)CN(c3ncnc5c3CC[C@@H](C)C5)CCO4)cc2[nH]1 | 50 to 250 |
| CCNc1nc2ccc(-c3ccc4c(c3)CN(c3ccnc5cc(OC)c(OC)cc35)CCO4)cc2[nH]1 | 10 to 50 |
| CC1(C)CCc2ncnc(N3CCOc4ccc(-c5cnc(N)c(S(=O)(=O)NC[C@@H]6CCNC6)c5)cc4C3)c2C1 | 10 to 50 |
| CC[C@H]1CCc2c(ncnc2N2CCOc3ccc(-c4cnc5nc([C@H](C)N)[nH]c5c4)cc3C2)C1 | 50 to 250 |
| COc1c(Cl)cc2c(N3CCOc4ccc(-c5ccc6nc(C)[nH]c6c5)cc4C3)ncnc2c1OC | 50 to 250 |
| Cc1nc2c(c(N3CCOc4ccc(-c5cnc(N)c(S(=O)(=O)N(C)C)c5)cc4C3)n1)CC(C)(C)CC2 | 50 to 250 |
| Cc1nc2ccc(-c3ccc4c(c3)CN(c3ncnc5c3CC(C)C5)CCO4)cc2[nH]1 (stereo not drawn) | 50 to 250 |
| Cc1nc2c(c(N3CCOc4ccc(-c5cnc6nc(C)[nH]c6c5)cc4C3)n1)CC(C)(C)CC2 | 10 to 50 |
| COc1ccc2c(N3CCOc4ccc(-c5cnc6nc(N)[nH]c6c5)cc4C3)nc(C)nc2c1 | ≤ 10 |
| Cc1c(N2CCOc3ccc(-c4cnc5nc(C6CC6)[nH]c5c4)cc3C2)ncnc1N(C)[C@@H](C)c1ccccc1 | 250 to 1000 |
| CN(C)S(=O)(=O)c1cncc(-c2ccc3c(c2)CN(c2ncnc4c2CC(C)(C)CC4)CCO3)c1 | 50 to 250 |
| COc1ccc2c(N3CCOc4ccc(-c5cnc(N)s5)cc4C3)nc(C)nc2c1 | ≤ 10 |
| CC[C@H]1CCc2c(nc(C)nc2N2CCOc3ccc(-c4cnc5nc(C)[nH]c5c4)cc3C2)C1 | ≤ 10 |
| CCc1ncnc(N2CCOc3ccc(-c4ccc5nc(C)[nH]c5c4)cc3C2)c1CC | 50 to 250 |
| Cc1nc(CN(C)C)nc(N2CCOc3ccc(-c4cnc5sc(N)nc5c4)cc3C2)c1Br | 10 to 50 |
| CCOc1ccc2ncnc(N3CCOc4ccc(-c5ccc6nc(C)[nH]c6c5)cc4C3)c2c1 | 50 to 250 |
| CC1(C)CCc2ncnc(N3CCOc4ccc(-c5cnc(N)c(S(=O)(=O)NC[C@H]6C[C@H]7CNC[C@H]7C6)c5)cc4C3)c2C1 | 50 to 250 |
| Cc1nc2ncc(-c3ccc4c(c3)CN(c3ncnc(N5CCN(C)CC5)c3C)CCO4)cc2[nH]1 | 50 to 250 |
| Cc1nc2c(c(N3CCOc4ccc(-c5cnc(N)c(S(=O)(=O)NCC6CCN(C)CC6)c5)cc4C3)n1)CC(C)(C)CC2 | 50 to 250 |
| CC1(C)CCc2ncnc(N3CCOc4ccc(-c5cnc(N)c(S(=O)(=O)CCCO)c5)cc4C3)c2C1 | 10 to 50 |
| CCNc1nc2ccc(-c3ccc4c(c3)CN(c3nc(CC)nc5cc(OC)ccc35)CCO4)cc2[nH]1 | ≤ 10 |
